# Patent publication US7741283B2, “Compositions and methods for inhibiting cell proliferation” (St. Louis University, priority 2003, dated 2010)
# Where a SMILES comes first, the peptide text is derived from it. The star is where a group is joined. Cbz = O=C(OCc1ccccc1)*
# How the values were obtained:
# IRS-2 = assay: 32P metabolic labeling and immunoprecipitation of IRS-2, Mv1Lu cells; format: cell-based, mink; details: for Effect of proteolysis inhibitors on IGFBP-3-induced mobility change of IRS-2: Mv1Lu, 1 hr prior to and during IGFBP-3 treatment
# acidic pH binding sites [1] = target: T1, acidic pH binding sites (Mus musculus, UniProt P14824); assay: Specific binding of 125I-ligands to MEF cells at acidic pH; details: for Inhibition of ^125I-α2M* binding to cells: MEF cells, pH 5.5, verapamil and W-5 at 100 μM; for Specific binding of ^125I-α2M*: 10 μM protein, pH 5.5, MEF
# T1 sequence (P14824 2-673): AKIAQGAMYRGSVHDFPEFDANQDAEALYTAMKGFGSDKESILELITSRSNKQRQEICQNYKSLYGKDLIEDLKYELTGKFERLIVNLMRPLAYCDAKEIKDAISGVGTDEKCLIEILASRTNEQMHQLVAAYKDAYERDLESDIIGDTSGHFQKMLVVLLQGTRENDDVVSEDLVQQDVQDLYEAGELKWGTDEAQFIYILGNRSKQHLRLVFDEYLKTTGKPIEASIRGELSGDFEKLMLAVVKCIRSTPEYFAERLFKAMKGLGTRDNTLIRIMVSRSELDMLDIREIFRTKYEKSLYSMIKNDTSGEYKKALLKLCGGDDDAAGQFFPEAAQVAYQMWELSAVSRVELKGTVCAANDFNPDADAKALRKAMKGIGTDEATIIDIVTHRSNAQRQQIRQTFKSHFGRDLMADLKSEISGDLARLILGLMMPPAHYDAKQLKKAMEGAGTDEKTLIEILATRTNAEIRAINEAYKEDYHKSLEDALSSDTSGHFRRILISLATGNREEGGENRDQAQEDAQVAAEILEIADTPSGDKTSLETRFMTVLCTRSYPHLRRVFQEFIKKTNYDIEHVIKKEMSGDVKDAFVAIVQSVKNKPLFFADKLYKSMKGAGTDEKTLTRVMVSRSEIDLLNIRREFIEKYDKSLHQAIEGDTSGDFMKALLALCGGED
# Mv1Lu cells [2] = assay: Internalization and degradation of cell surface-bound 125I-TGF-β1 or 125I-α2M*, Mv1Lu cells; format: cell-based, mink; details: 10 μM, pH 7.4, 1 hr at 37° C.
# Method: After 1 hr at 37° C., the medium was collected and precipitated with 10% trichloroacetic acid (TCA). The TCA-soluble radioactive material in the medium represented the cellular degradation products of 125I-TGF-β1 or 125I-α2M*. The cells were then treated with trypsin (5 mg/ml), maintained for 20 min at 0° C. and centrifuged. The radioactivity in the supernate and cell pellets represented cell surface-bound and internalized 125I-TGF-β1 or 125I-α2M*, respectively. The experiments were performed in quadruplicate.
# After 2.5 hr, cells were washed, then warmed to 37° C.
# LRP-1 [3] = target: T2, LRP-1 (Mus musculus, UniProt Q91ZX7); assay: 125I-α2M* binding to MEF cells at pH 7.4; details: for ^125I-α2M* binding: 10 μM protein, pH 7.4, MEF
# T2 construct: endogenous in cells; host or cells: MEF (mouse embryonic fibroblasts)
# T2 sequence (Q91ZX7 20-4545): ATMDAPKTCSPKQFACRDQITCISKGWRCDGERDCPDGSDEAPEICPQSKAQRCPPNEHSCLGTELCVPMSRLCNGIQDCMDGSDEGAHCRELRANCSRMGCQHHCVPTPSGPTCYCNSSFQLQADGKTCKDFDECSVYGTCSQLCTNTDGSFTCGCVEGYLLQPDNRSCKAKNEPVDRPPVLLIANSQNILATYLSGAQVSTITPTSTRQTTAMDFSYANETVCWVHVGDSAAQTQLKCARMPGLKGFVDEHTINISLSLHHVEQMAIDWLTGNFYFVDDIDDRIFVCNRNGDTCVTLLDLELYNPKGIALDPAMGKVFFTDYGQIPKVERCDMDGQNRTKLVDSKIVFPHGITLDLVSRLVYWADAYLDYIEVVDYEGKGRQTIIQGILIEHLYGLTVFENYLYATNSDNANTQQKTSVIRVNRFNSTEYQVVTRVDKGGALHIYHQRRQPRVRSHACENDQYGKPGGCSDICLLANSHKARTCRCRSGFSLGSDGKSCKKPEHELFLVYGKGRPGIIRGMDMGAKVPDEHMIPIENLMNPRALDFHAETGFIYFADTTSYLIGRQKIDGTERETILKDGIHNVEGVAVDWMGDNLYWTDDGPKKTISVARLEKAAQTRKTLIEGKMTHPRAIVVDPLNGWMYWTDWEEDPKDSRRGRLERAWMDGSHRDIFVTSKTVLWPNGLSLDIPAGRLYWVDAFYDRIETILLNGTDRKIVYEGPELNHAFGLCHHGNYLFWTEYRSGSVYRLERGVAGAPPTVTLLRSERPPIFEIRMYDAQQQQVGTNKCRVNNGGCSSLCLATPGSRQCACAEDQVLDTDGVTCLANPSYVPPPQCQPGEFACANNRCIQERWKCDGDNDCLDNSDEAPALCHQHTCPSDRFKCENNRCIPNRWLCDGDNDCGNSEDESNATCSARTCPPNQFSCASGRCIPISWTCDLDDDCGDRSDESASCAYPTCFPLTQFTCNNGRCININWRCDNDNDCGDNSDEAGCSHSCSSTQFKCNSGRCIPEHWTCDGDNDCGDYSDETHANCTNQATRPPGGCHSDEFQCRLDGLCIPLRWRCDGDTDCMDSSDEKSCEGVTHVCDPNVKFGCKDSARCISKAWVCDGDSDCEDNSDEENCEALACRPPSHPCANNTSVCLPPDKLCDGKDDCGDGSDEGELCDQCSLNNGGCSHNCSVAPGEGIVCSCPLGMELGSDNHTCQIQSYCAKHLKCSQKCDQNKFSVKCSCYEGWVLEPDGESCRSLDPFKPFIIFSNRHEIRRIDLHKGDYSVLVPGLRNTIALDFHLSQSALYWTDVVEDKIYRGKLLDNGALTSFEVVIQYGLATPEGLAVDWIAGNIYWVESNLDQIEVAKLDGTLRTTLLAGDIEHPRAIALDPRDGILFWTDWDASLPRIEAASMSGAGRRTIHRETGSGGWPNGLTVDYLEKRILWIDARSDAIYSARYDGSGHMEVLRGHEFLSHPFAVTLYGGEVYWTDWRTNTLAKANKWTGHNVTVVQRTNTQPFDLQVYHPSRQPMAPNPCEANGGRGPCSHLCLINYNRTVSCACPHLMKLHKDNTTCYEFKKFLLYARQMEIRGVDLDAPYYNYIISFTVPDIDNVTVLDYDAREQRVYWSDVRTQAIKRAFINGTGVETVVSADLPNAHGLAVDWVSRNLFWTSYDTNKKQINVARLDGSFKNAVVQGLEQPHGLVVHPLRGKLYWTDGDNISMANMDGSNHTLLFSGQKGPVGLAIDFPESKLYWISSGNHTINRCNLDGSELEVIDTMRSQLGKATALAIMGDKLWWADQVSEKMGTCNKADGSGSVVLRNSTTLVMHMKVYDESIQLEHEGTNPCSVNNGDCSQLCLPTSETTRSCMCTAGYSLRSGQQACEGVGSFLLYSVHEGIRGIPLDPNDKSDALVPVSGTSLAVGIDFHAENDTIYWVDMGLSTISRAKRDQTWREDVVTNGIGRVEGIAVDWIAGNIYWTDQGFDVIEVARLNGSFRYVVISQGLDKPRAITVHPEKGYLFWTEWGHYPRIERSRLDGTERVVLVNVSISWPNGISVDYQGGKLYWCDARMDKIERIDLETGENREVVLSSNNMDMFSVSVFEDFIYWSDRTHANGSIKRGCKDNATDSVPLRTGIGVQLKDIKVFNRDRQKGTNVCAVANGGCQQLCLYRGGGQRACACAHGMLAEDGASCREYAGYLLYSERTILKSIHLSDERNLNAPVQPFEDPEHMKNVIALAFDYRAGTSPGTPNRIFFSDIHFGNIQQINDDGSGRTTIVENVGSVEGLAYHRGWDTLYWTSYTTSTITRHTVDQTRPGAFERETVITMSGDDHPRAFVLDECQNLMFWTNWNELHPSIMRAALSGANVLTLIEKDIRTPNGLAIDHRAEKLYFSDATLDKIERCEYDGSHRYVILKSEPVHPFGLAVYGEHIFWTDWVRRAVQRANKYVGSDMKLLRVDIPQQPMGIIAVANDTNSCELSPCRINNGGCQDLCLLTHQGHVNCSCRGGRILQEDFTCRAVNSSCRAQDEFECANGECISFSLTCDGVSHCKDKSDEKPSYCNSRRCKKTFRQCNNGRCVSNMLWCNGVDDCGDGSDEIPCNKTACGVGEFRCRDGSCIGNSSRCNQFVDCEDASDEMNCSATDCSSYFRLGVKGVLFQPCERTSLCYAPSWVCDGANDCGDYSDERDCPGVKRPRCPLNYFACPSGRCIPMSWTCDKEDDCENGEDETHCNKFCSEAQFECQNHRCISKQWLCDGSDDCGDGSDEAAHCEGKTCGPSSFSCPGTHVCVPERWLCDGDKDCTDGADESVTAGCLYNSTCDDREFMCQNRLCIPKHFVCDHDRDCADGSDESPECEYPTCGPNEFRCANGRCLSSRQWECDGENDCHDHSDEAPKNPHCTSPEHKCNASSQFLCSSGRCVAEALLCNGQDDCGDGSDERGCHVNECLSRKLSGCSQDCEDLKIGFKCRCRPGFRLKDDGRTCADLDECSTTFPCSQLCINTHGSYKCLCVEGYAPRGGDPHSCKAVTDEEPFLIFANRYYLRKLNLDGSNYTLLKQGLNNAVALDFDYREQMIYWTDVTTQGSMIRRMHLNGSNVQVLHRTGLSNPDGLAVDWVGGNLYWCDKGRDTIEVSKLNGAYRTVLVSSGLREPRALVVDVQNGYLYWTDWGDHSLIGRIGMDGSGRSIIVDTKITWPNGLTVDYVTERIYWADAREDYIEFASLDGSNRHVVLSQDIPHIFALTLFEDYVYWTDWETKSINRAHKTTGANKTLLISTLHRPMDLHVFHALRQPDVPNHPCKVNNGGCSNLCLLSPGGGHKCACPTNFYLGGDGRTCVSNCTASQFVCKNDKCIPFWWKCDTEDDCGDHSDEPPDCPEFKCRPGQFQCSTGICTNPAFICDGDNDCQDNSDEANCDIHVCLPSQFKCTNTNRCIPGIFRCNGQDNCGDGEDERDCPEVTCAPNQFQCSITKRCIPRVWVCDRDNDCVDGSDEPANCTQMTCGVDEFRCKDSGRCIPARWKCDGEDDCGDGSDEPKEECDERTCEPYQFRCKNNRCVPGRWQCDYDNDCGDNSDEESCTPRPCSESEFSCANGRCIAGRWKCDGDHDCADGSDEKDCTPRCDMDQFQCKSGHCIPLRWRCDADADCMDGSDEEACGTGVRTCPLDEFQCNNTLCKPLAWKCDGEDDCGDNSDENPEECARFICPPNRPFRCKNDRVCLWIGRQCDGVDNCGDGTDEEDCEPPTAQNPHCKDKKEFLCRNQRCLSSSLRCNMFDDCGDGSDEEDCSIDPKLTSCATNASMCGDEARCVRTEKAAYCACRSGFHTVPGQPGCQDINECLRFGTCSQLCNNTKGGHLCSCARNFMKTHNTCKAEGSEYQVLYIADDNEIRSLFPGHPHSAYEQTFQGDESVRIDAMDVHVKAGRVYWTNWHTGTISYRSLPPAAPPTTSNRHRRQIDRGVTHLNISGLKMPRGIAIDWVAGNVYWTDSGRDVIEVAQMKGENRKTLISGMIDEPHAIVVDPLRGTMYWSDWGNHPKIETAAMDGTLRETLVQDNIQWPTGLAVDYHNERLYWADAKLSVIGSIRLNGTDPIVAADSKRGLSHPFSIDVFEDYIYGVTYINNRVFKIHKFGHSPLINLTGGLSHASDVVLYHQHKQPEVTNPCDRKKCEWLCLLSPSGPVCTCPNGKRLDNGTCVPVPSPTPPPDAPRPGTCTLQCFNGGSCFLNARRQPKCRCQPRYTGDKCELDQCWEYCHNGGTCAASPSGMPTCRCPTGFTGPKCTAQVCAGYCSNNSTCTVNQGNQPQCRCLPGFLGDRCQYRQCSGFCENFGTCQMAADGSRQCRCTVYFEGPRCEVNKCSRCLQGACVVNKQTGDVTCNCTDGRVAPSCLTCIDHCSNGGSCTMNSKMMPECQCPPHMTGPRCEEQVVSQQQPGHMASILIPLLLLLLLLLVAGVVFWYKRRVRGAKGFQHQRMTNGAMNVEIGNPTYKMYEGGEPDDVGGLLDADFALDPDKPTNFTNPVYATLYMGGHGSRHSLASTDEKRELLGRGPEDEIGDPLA
# acidic pH binding sites [4] = target: acidic pH binding sites (Neogale vison, UniProt A0A8C7BSJ2); assay: Specific binding of 125I-ligands to Mv1Lu cells at acidic pH; design: species or system mink; details: for Specific binding of ^125I-α2M*: 10 μM protein, pH 5.5, Mv1Lu
# acidic pH binding sites (Neogale vison, UniProt A0A8C7BSJ2), sequence (A0A8C7BSJ2 entry or part of it): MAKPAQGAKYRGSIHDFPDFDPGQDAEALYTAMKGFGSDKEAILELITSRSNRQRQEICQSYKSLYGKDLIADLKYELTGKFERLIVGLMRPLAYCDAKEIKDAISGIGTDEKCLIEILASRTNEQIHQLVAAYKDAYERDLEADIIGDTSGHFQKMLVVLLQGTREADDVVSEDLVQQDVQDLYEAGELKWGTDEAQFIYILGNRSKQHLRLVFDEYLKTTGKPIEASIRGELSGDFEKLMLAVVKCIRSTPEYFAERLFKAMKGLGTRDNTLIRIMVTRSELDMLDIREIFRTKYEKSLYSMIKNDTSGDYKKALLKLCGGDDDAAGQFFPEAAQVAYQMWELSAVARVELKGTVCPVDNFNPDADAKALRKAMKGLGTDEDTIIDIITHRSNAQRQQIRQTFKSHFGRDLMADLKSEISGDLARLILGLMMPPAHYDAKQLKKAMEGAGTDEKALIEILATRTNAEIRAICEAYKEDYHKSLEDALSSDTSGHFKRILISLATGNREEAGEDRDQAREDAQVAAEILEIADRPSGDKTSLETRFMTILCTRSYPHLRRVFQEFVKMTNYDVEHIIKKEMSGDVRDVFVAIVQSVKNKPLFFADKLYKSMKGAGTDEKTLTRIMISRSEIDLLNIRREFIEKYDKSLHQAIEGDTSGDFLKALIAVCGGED
# acidic pH binding sites [5] = target: T1, acidic pH binding sites; assay: Specific binding of 125I-ligands to PEA-13 cells at acidic pH; design: endogenous in cells; host or cells: PEA-13 (LRP-1-deficient mouse embryonic fibroblasts); details: for Specific binding of ^125I-α2M*: 10 μM protein, pH 5.5, PEA-13
# LRP-1 [6] = assay: 125I-α2M* binding to Mv1Lu cells at pH 7.4; design: species or system mink; details: for ^125I-α2M* binding: 10 μM protein, pH 7.4, Mv1Lu; for ^125I-α2M* binding to LRP-1: 10 μg/ml, neutral pH, Mv1Lu cells
# Mv1Lu cells [7] = assay: [methyl-3H] thymidine incorporation (DNA synthesis), Mv1Lu cells; format: cell-based, mink; details: insulin 10 nM or cyclic RGD peptide 0.01 μg/ml alone
molecule,measurement,setting,value
"CC(C)C[C@@H](C=O)NC(=O)[C@H](CC(C)C)NC(=O)[C@H](CC(C)C)NC(=O)OCc1ccccc1 [MG-132, reference compound] (Cbz-Leu-Leu-Leu-aldehyde)",Effect of proteolysis inhibitors on IGFBP-3-induced mobility change of IRS-2,IRS-2,did not affect
"NCCCCCCNS(=O)(=O)c1cccc2ccccc12 [W-5, reference compound]",Inhibition of ^125I-α2M* binding to cells,acidic pH binding sites [1],inactive
"NCCCCCCNS(=O)(=O)c1cccc2c(Cl)cccc12 [W-7, reference compound]",Inhibition of ^125I-α2M* binding to cells,acidic pH binding sites [1],less effective inhibitors
"CSCC[C@@H](C=O)NC(=O)[C@H](CC(C)C)NC(=O)[C@H](CC(C)C)NC(C)=O [calpain inhibitor II, reference compound] (Ac-Leu-Leu-Met-aldehyde)",Effect of proteolysis inhibitors on IGFBP-3-induced mobility change of IRS-2,IRS-2,did not affect
"COC[C@@H]([C@H](O)[C@H](O)C(=O)NCC[C@H](C)c1nc(/C=C/C[C@@H]2O[C@]3(C[C@@H](O)[C@@H]2C)O[C@H]([C@H](C[C@H](O)[C@H](C)[C@H](O)[C@H](C)/C=C(C)/C(C)=C/C=C/C(C)=C\C#N)OC)[C@H](OP(=O)(O)O)C3(C)C)co1)N(C)C [calyculin A, reference compound]",Effect of phosphatase inhibitors on IGFBP-3-induced specific dephosphorylation / mobility change of IRS-2,IRS-2,did not appear to affect
"CC1(C(=O)O)C2CCC(O2)C1(C)C(=O)O (centres unmarked) [cantharidic acid, reference compound]",Effect of phosphatase inhibitors on IGFBP-3-induced specific dephosphorylation / mobility change of IRS-2,IRS-2,did not appear to affect
OCCN1CCN(CCCN2c3ccccc3Sc3ccc(C(F)(F)F)cc32)CC1 [fluphenazine],Degradation of cell surface-bound ^125I-TGF-β1 or ^125I-α2M*,Mv1Lu cells [2],completely inhibits
"CN(C)c1cccc2c(S(=O)(=O)NCCCCCN)cccc12 [monodansylcadaverine, reference compound]",Inhibition of ^125I-α2M* binding to cells,acidic pH binding sites [1],less effective inhibitors
"C=C1[C@@H](O)[C@@H]2O[C@]3(CC[C@H](/C=C/[C@@H](C)[C@@H]4CC(C)=C[C@@]5(O[C@H](C[C@@](C)(O)C(=O)O)CC[C@H]5O)O4)O3)CC[C@H]2O[C@@H]1[C@@H](O)C[C@H](C)[C@H]1O[C@@]2(CCCCO2)CC[C@H]1C [okadaic acid, reference compound]",Effect of phosphatase inhibitors on IGFBP-3-induced specific dephosphorylation / mobility change of IRS-2,IRS-2,effectively blocked
"CC(CN1c2ccccc2Sc2ccccc21)N(C)C (centres unmarked) [promethazine, reference compound]",Degradation of cell surface-bound ^125I-TGF-β1 or ^125I-α2M*,Mv1Lu cells [2],did not exhibit any significant effect
same,Degradation of cell surface-bound ^125I-TGF-β1 or ^125I-α2M*,Mv1Lu cells [2]; listed as Promethazine,ineffective
same,Inhibition of ^125I-α2M* binding,"LRP-1 [3]; MEF cells, pH 7.4",almost as effective as trifluoperazine and fluphenazine
same,Inhibition of ^125I-α2M* binding to cells,acidic pH binding sites [1],not effective
"[O]=[V]([O-])([O-])[O-] [vanadale, reference compound]",Effect of phosphatase inhibitors on IGFBP-3-induced specific dephosphorylation / mobility change of IRS-2,IRS-2,did not appear to affect
Pseudomonas exotoxin: a ligand of LRP-1,Inhibition of ^125I-α2M* binding to cells,"acidic pH binding sites [4]; 0.5 μM, Mv1Lu cells, pH 5 or 6",did not effectively inhibit
apoE: human apoE,Specific binding of ^125I-α2M*,acidic pH binding sites [5],completely blocked
same,^125I-α2M* binding,LRP-1 [6],did not have a significant effect
same,^125I-α2M* binding,LRP-1 [3],did not have a significant effect
same,Specific binding of ^125I-α2M*,acidic pH binding sites [4],completely blocked
same,Specific binding of ^125I-α2M*,acidic pH binding sites [1],completely blocked
chondroitin sulfate A [reference compound],^125I-α2M* binding to LRP-1,LRP-1 [6],did not significantly affect
same,Inhibition of ^125I-α2M* binding,"acidic pH binding sites [4]; Mv1Lu cells, pH 5",potent inhibitors
chondroitin sulfate B [reference compound],^125I-α2M* binding to LRP-1,LRP-1 [6],did not significantly affect
same,Inhibition of ^125I-α2M* binding,"acidic pH binding sites [4]; Mv1Lu cells, pH 5",potent inhibitors
chondroitin sulfate C [reference compound],^125I-α2M* binding to LRP-1,LRP-1 [6],did not significantly affect
same,Inhibition of ^125I-α2M* binding,"acidic pH binding sites [4]; Mv1Lu cells, pH 5",potent inhibitors
"cyclo GRGDSPA (cyclic) [cyclic RGD peptide, reference compound]",Effect alone on TGF-β1-induced inhibition of DNA synthesis,Mv1Lu cells [7],Neither insulin (10 nM) nor the cyclic RGD peptide (0.01 μg/ml) alone affected
heparin sulfate [reference compound],^125I-α2M* binding to LRP-1,LRP-1 [6],did not significantly affect
same,Enhancement of ^125I-α2M* binding,"acidic pH binding sites [4]; 1 μg/ml, Mv1Lu cells, pH 5",~400%
same,Inhibition of ^125I-α2M* binding,"acidic pH binding sites [4]; 10 μg/ml, Mv1Lu cells, pH 5",> 80%
microcystin [reference compound],Effect of phosphatase inhibitors on IGFBP-3-induced specific dephosphorylation / mobility change of IRS-2,IRS-2,did not appear to affect
native α2M: human α2-macroglobulin purified from plasma,IC50,"acidic pH binding sites [5]; PEA-13 cells, acidic pH, read-out: IC50, inhibition of ^125I-α2M* binding",> 400 nM
transferrin: human transferrin,Specific binding of ^125I-α2M*,acidic pH binding sites [5],completely blocked
same,^125I-α2M* binding,LRP-1 [6],did not have a significant effect
same,^125I-α2M* binding,LRP-1 [3],did not have a significant effect
same,Specific binding of ^125I-α2M*,acidic pH binding sites [4],completely blocked
same,IC50,"acidic pH binding sites [4]; Mv1Lu cells, pH 5 or 6, read-out: IC50, inhibition of ^125I-α2M* binding to cells",~500 nM
same,Specific binding of ^125I-α2M*,acidic pH binding sites [1],completely blocked
